The record followed here is patent US12655090B2, “Cyclopropylamide compounds against parasites in fish” (Intervet Inc., priority 2021, dated 2026).

The test system of the first assay is Copepodids (juvenile sea lice stage of Lepeophtheirus salmonis). As to the kind of experiment: Juvenile sea lice contact assay. To be noted: test concentration 0.01 nM, approximately 24 hours continuous exposure in seawater, read-out: Sea lice inhibition (% of dead+damaged copepodids). How it is done:
Copepodids (juvenile sea lice stage of Lepeophtheirus salmonis) were exposed to seawater spiked with declining concentrations of a test compound (dissolved in a DMSO sea-water mixture). Sea lice inhibition (% of dead+damaged copepodids) was assessed after approximately 24 hours of continuous exposure. The vitality of used parasites was confirmed in a negative (solvent) control group.
As usually defined, the inhibition is the share of the control response that was lost under treatment. As to `O=C(NCCF)c1cc(NC(=O)C2C(c3ccc(F)c(Cl)c3)C2(Cl)Cl)ccc1Cl` (racemic) [Compound 1536], the inhibition at 10 pM was 100%.

On to `O=C(NCCC(F)(F)F)c1cc(NC(=O)C2C(c3ccc(F)c(Cl)c3)C2(Cl)Cl)ccc1Cl` (racemic) [Compound 1538], for which the inhibition at 10 pM came to 100%. The same measure, in the same setting: as for `O=C(NCC(F)(F)F)c1cc(NC(=O)C2C(c3cc(F)c(F)c(F)c3)C2(Cl)Cl)ccc1Cl` (racemic) [Compound 1551], the figure is 100%; as for `O=C(NCCF)c1cc(NC(=O)C2C(c3ccc(F)c(Cl)c3)C2(Cl)Cl)ccc1F` (racemic) [Compound 1558], 100%; as for `O=C(NCC(F)(F)F)c1cc(NC(=O)C2C(c3ccc(F)c(Cl)c3)C2(Cl)Cl)ccc1F` (racemic) [Compound 1559], 100%.

The assay is the same for the next values; noted with them: test concentration 1 nM, approximately 24 hours continuous exposure in seawater, read-out: Sea lice inhibition (% of dead+damaged copepodids).
For `CC1(NC(=O)c2cc(NC(=O)C3C(c4cc(Cl)cc(Cl)c4)C3(Cl)Cl)ccc2Cl)CC1` (racemic) [Compound 1523], the inhibition at 0.001 µM stood at 80%.

The same assay, now with this note: test concentration 10 nM, approximately 24 hours continuous exposure in seawater, read-out: Sea lice inhibition (% of dead+damaged copepodids).
As for `O=C(NCC(F)(F)F)c1cc(NC(=O)C2C(c3cc(Cl)cc(Cl)c3)C2(Cl)Cl)ccc1Cl` (racemic) [Compound 1500], the inhibition at 0.01 µM was at least 80%. Still for that read-out and setting: to `N#CC1(NC(=O)c2cc(NC(=O)C3C(c4ccc(Cl)c(Cl)c4)C3(Cl)Cl)ccc2Cl)CC1` (racemic) [Compound 1501] belongs at least 80%. On the same count and under the same terms, as for `CC(C)CNC(=O)c1cc(NC(=O)C2C(c3cc(Cl)cc(Cl)c3)C2(Cl)Cl)ccc1Cl` (racemic) [Compound 1502], the figure is 100%.

Regarding `CCNC(=O)c1cc(NC(=O)C2C(c3cc(Cl)cc(Cl)c3)C2(Cl)Cl)ccc1Cl` (racemic) [Compound 1509], the inhibition at 0.01 µM stood at 100%. Still for that read-out and setting: as for `O=C(NC1COC1)c1cc(NC(=O)C2C(c3cc(Cl)cc(Cl)c3)C2(Cl)Cl)ccc1Cl` (racemic) [Compound 1510], the figure is 100%. As to `Cc1cc(Cl)cc(C2C(C(=O)Nc3ccc(Cl)c(C(=O)NC4CC(F)(F)C4)c3)C2(Cl)Cl)c1` (racemic) [Compound 1513], the inhibition at 0.01 µM amounted to 100%. Still for that read-out and setting: as for `N#CC1(NC(=O)c2cc(NC(=O)C3C(c4cc(Cl)cc(Cl)c4)C3(Cl)Cl)ccc2Cl)CC1` (racemic) [Compound 1515], the figure is 100%. On the same count and under the same terms, to `O=C(NC1CCOC1=O)c1cc(NC(=O)C2C(c3cc(Cl)cc(Cl)c3)C2(Cl)Cl)ccc1Cl` (racemic) [Compound 1526] belongs 100%. Still for that read-out and setting: as for `O=C(NCC(F)(F)F)c1cc(NC(=O)C2C(c3ccc(F)c(Cl)c3)C2(Cl)Cl)ccc1Cl` (racemic) [Compound 1537], the figure is 100%; as for `O=C(NCCF)c1cc(NC(=O)C2C(c3cc(Cl)cc(Cl)c3)C2(Cl)Cl)cc(Cl)c1Cl` (racemic) [Compound 1539], 100%. `O=C(NCCC(F)(F)F)c1cc(NC(=O)C2C(c3cc(Cl)cc(Cl)c3)C2(Cl)Cl)cc(Cl)c1Cl` (racemic) [Compound 1552]: the inhibition at 0.01 µM was at least 80%. On the same count and under the same terms, to `CCNC(=O)c1cc(NC(=O)C2C(c3cc(Cl)cc(Cl)c3)C2(Cl)Cl)cc(Cl)c1Cl` (racemic) [Compound 1553] belongs 100%. Same read-out and setting: as for `O=C(NCC(F)(F)F)c1cc(NC(=O)C2C(c3ccc(F)c(Cl)c3)C2(Cl)Cl)cc(F)c1F` (racemic) [Compound 1554], the figure is at least 80%; as for `Cc1cc(NC(=O)C2C(c3ccc(F)c(Cl)c3)C2(Cl)Cl)cc(C(=O)NCCCCl)c1Cl` (racemic) [Compound 1557], 100%; as for `Cc1c(Cl)cc(NC(=O)C2C(c3ccc(F)c(Cl)c3)C2(Cl)Cl)cc1C(=O)NCC(F)(F)F` (racemic) [Compound 1561], 100%.

Staying with this assay, now noted: test concentration 100 nM, approximately 24 hours continuous exposure in seawater, read-out: Sea lice inhibition (% of dead+damaged copepodids).
`N#CC1(NC(=O)c2cc(NC(=O)C3C(c4cc(F)c(Br)c(F)c4)C3(Cl)Cl)ccc2Cl)CC1` (racemic) [Compound 1544]: the inhibition at 0.1 µM came to 100%. Still for that read-out and setting: to `N#CC1(NC(=O)c2cc(NC(=O)C3C(c4cccc(C(F)F)c4)C3(Cl)Cl)ccc2Cl)CC1` (racemic) [Compound 1549] belongs 100%.
